Tested on: 922993-354-T-J3-PDC complex spheroid viability
Assay: Anticancer human tumor 922993-354-T-J3-PDC patient-derived endometrial carcinoma cell line growth inhibition [POLQ]
Settings: for IC50: curve of first compound; for viability, T/C: stronger effect = lower value
Protocol: Multicellular complex tumor spheroid response to Polymerase (POL) inhibitors (novobiocin, ART-558, RP6685) in combination with a variety of drugs and investigational agents in selected tumor cell lines
The POL inhibitors (novobiocin, ART-558, and RP6685) were evaluated both individually and in combination with standard of care and investigational anticancer small molecules within a complex spheroid model of solid tumors. . Complex spheroids include a stromal component modeled by human endothelial cells (HUVEC) and fibroblasts modeled by human mesenchymal stem cells (MSCs). The concentration ranges selected for each drug and investigational agent were based upon clinically achievable concentrations if the clinical Cmax of the agent was known.
Compounds. The drugs and investigational agents: novobiocin (NSC847541), ART-558 (NSC835418), RP-6685 (NSC848927), peposertib (NSC802822), ceralasertib (NSC780249), elimusertib (NSC800525), camonsertib (NSC841442), AZD-1390 (NSC803789), olaparib (NSC753686), talazoparib (NSC767125), rucaparib (NSC756644), sotorasib (NSC818433), MRTX-1133 (NSC836407), SN-38 (NSC673596), topotecan (NSC609699), epotoside (NSC141540), doxorubicin (NSC123127), gemcitabine (NSC613327), 5-fluorouracil (NSC19893), paclitaxel (NSC125973), vemurafenib (NSC761431), MSA-2 (NSC828583), SN-011 (NSC837082), adavosertib (NSC754352), prexasertib (NSC758257), carboplatin (NSC241240) and oxaliplatin (NSC266046), were obtained from the National Cancer Institute (NCI) Developmental Therapeutics Program Chemical Repository (21). The FDA-approved anticancer drug set is available from the Developmental Therapeutics Program at https://dtp.cancer.gov/organization/dscb/obtaining/. […] The stock solutions were prepared in dimethyl sulfoxide (DMSO, Sigma-Aldrich, St. Louis, MO, cat. D2650), except for the platinum compounds which were prepared in saline (Quality Biological, Gaithersburg, MD, cat. 114-055-101), at 800-fold the tested concentration and stored at -70 degrees C prior to their use. All drugs and investigational agents were tested over a range starting from a high concentration at or near the clinical Cmax and decreasing in half-log increments. If the clinical Cmax for an agent had not been determined, the highest concentration tested was 10 microM, except for SN-38, which was tested at a high concentration of 1 microM.
Cell Culture. All cells were maintained in an incubator at 37 degrees C and 5% CO2 with 95% humidity. The PDC lines were cultured according to standard operating procedures established by the NCI PDMR (https://pdmr.cancer.gov). Table 3 of the manuscript, lists the cell lines along with the number of the three cell types plated to form the mct-spheroids and media for tumor cell growth. After thawing, all PDC lines, except 997537-175-T-J1-PDC and 415267-285-R-J2-PDC, were cultured in Matrigel-coated flasks prepared with a working solution of 1X Ham's F-12 nutrient mix, without supplementation (Thermo Fisher Scientific, cat. 11765054), 100 U/mL penicillin-streptomycin (Thermo Fisher Scientific, cat. 15140122), and 2.5% Matrigel (Corning Inc., Corning, NY, cat. 354248) for the first three passages. The two PDC lines 997537-175-T-J1-PDC and 415267-285-R-J2-PDC were cultured on uncoated flasks. The 857933-349-R-J2-PDC line was cultured in 6C/Colon 1B media containing advanced DMEM/F-12 (Thermo Fisher Scientific, cat. 12634028), 10 mM HEPES (Thermo Fisher Scientific, cat. 15630080), 1X GlutaMAX supplement (Thermo Fisher Scientific, cat. 35050061), 0.1 mg/mL primocin (InvivoGen, San Diego, CA, cat. ant-pm-2), 10% defined fetal bovine serum, heat inactivated (HyClone Laboratories Inc., Logan, UT, cat. SH30070.03HI), 50% L-WRN conditioned media (ATCC, cat. CRL-3276), 1.25 mM N-Acetyl-L-cysteine (Sigma-Aldrich, cat. A9165), 10 mM nicotinamide (Sigma-Aldrich, cat. N0636), 1X B-27 supplement (Thermo Fisher Scientific, cat. 17504044), 1X N-2 supplement (Thermo Fisher Scientific, cat. […]

[1] = second compound 0.0316 µM, first compound 0.0316 µM
[2] = second compound 0.0316 µM, first compound 0.1 µM
[3] = second compound 0.0316 µM, first compound 0.316 µM
[4] = second compound 0.0316 µM, first compound 1 µM
[5] = second compound 0.0316 µM, first compound 3.16 µM
[6] = second compound 0.0316 µM, first compound 10 µM
[7] = second compound 0.1 µM, first compound 0.0316 µM
[8] = second compound 0.1 µM, first compound 0.1 µM
[9] = second compound 0.1 µM, first compound 0.316 µM
[10] = second compound 0.1 µM, first compound 1 µM
[11] = second compound 0.1 µM, first compound 3.16 µM
[12] = second compound 0.1 µM, first compound 10 µM
[13] = second compound 0.316 µM, first compound 0.0316 µM
[14] = second compound 0.316 µM, first compound 0.1 µM
[15] = second compound 0.316 µM, first compound 0.316 µM
[16] = second compound 0.316 µM, first compound 1 µM
[17] = second compound 0.316 µM, first compound 3.16 µM
[18] = second compound 0.316 µM, first compound 10 µM
[19] = second compound 1 µM, first compound 0.0316 µM
[20] = second compound 1 µM, first compound 0.1 µM
[21] = second compound 1 µM, first compound 0.316 µM
[22] = second compound 1 µM, first compound 1 µM
[23] = second compound 1 µM, first compound 3.16 µM
[24] = second compound 1 µM, first compound 10 µM
[25] = second compound 3.16 µM, first compound 0.0316 µM
[26] = second compound 3.16 µM, first compound 0.1 µM
[27] = second compound 3.16 µM, first compound 0.316 µM
[28] = second compound 3.16 µM, first compound 1 µM
[29] = second compound 3.16 µM, first compound 3.16 µM
[30] = second compound 3.16 µM, first compound 10 µM
[31] = second compound 10 µM, first compound 0.0316 µM
[32] = second compound 10 µM, first compound 0.1 µM
[33] = second compound 10 µM, first compound 0.316 µM
[34] = second compound 10 µM, first compound 1 µM
[35] = second compound 10 µM, first compound 3.16 µM
[36] = second compound 10 µM, first compound 10 µM
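Also: spheroids exposed to the agents for one week.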
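For viability, T/C in this document: 100% = DMSO vehicle control wells.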

SMILES: C=CC(=O)N1CCN(c2nc(=O)n(-c3c(C)ccnc3C(C)C)c3nc(-c4c(O)cccc4F)c(F)cc23)C(C)C1 (centres undefined) + Nc1ccc(C#CCN(C(=O)Cc2ncc(C(F)(F)F)cc2C(F)(F)F)c2ccc(F)cc2)nn1
- IC50 (second compound 0.0316 µM): > 10 µM
- IC50 (second compound 0.1 µM): > 10 µM
- IC50 (second compound 0.316 µM): > 10 µM
- IC50 (second compound 1 µM): > 10 µM
- IC50 (second compound 3.16 µM): > 10 µM
- IC50 (second compound 10 µM): > 10 µM
- viability, T/C [1]: 105%
- viability, T/C [2]: 103%
- viability, T/C [3]: 96.5%
- viability, T/C [4]: 108%
- viability, T/C [5]: 105%
- viability, T/C [6]: 104%
- viability, T/C [7]: 110%
- viability, T/C [8]: 106%
- viability, T/C [9]: 104%
- viability, T/C [10]: 108%
- viability, T/C [11]: 107%
- viability, T/C [12]: 104%
- viability, T/C [13]: 107%
- viability, T/C [14]: 107%
- viability, T/C [15]: 103%
- viability, T/C [16]: 105%
- viability, T/C [17]: 104%
- viability, T/C [18]: 99.3%
- viability, T/C [19]: 107%
- viability, T/C [20]: 101%
- viability, T/C [21]: 99.6%
- viability, T/C [22]: 108%
- viability, T/C [23]: 101%
- viability, T/C [24]: 102%
- viability, T/C [25]: 101%
- viability, T/C [26]: 105%
- viability, T/C [27]: 104%
- viability, T/C [28]: 102%
- viability, T/C [29]: 103%
- viability, T/C [30]: 101%
- viability, T/C [31]: 97.3%
- viability, T/C [32]: 105%
- viability, T/C [33]: 105%
- viability, T/C [34]: 93.6%
- viability, T/C [35]: 101%
- viability, T/C [36]: 98.1%

SMILES: CC1COCCN1c1cc(C2(S(C)(=N)=O)CC2)nc(-c2ccnc3[nH]ccc23)n1 (centres undefined) + Nc1ccc(C#CCN(C(=O)Cc2ncc(C(F)(F)F)cc2C(F)(F)F)c2ccc(F)cc2)nn1
- IC50 (second compound 0.0316 µM): > 10 µM
- IC50 (second compound 0.1 µM): > 10 µM
- IC50 (second compound 0.316 µM): > 10 µM
- IC50 (second compound 1 µM): > 10 µM
- IC50 (second compound 3.16 µM): > 10 µM
- IC50 (second compound 10 µM): 6.37 µM
- viability, T/C [1]: 104%
- viability, T/C [2]: 106%
- viability, T/C [3]: 98.7%
- viability, T/C [4]: 106%
- viability, T/C [5]: 95.5%
- viability, T/C [6]: 88.5%
- viability, T/C [7]: 107%
- viability, T/C [8]: 105%
- viability, T/C [9]: 101%
- viability, T/C [10]: 102%
- viability, T/C [11]: 105%
- viability, T/C [12]: 89.2%
- viability, T/C [13]: 105%
- viability, T/C [14]: 101%
- viability, T/C [15]: 101%
- viability, T/C [16]: 97.2%
- viability, T/C [17]: 105%
- viability, T/C [18]: 91.6%
- viability, T/C [19]: 102%
- viability, T/C [20]: 99%
- viability, T/C [21]: 102%
- viability, T/C [22]: 98.9%
- viability, T/C [23]: 101%
- viability, T/C [24]: 89.6%
- viability, T/C [25]: 103%
- viability, T/C [26]: 95%
- viability, T/C [27]: 102%
- viability, T/C [28]: 95.5%
- viability, T/C [29]: 101%
- viability, T/C [30]: 85.3%
- viability, T/C [31]: 98.3%
- viability, T/C [32]: 96.5%
- viability, T/C [33]: 98.7%
- viability, T/C [34]: 92.9%
- viability, T/C [35]: 81.6%
- viability, T/C [36]: 29.9%
